Reference: ChEMBL document CHEMBL3885861, “Open TG-GATES”

Species on record: Rattus norvegicus
Experiment: Open TG-GATES - Regimen: Single
Format: toxicity, organism-based, Sprague-Dawley
Design: regimen Single, gender Male, age 6 weeks
Settings: in vivo, po, 50 mg/kg, route gavage, dose level Middle; for APTT / Bas / Eos / Fbg / Hb / Ht / Lym / MCH / MCHC / MCV / Mono / Neu / PT / Plat / RBC / Ret / WBC: tissue Blood; for KIDNEY_L / KIDNEY_R / KIDNEY_TOTAL: tissue Kidney; for LIVER: tissue Liver; for A/G / ALP / ALT / AST / BUN / CRE / Ca / Cl / DBIL / GLC / IP / K / LDH / Na / PL / RALB / TBIL / TC / TG / TP / gamma-GTP: tissue Plasma

Nc1nc(N)c2nc(-c3ccccc3)c(N)nc2n1 gave a TERMINAL_BW (3 h) of 214.5 g, an APTT (3 h) of 16.6 s and a Bas (3 h) of 0%. It also gave an Eos (3 h) of 0.8%, a Fbg (3 h) of 295.2 mg/dL and a Hb (3 h) of 14.3 g/dL. The Ht (3 h) was 43.1%, the Lym (3 h) was 77% and the MCH (3 h) was 21.2 pg. For the same compound, the MCHC (3 h) was 33.2%, the MCV (3 h) was 64 fL and the Mono (3 h) was 3.4%. The Neu (3 h) was 18.4%, the PT (3 h) was 13.9 s and the Plat (3 h) was 121.1 x10_4/uL. It also gave an RBC (3 h) of 673.2 x10_4/ul, a Ret (3 h) of 7% and a WBC (3 h) of 86.9 x10_2/uL. The KIDNEY_L (3 h) was 1 g, the KIDNEY_R (3 h) was 1 g and the KIDNEY_TOTAL (3 h) was 1.9 g. The LIVER (3 h) was 9.5 g, the A/G (3 h) was 0.9 and the ALP (3 h) was 1490.4 IU/L. For the same compound, the ALT (3 h) was 42.4 IU/L, the AST (3 h) was 73.2 IU/L and the BUN (3 h) was 12.2 mg/dL. The CRE (3 h) was 0.2 mg/dL, the Ca (3 h) was 11 mg/dL and the Cl (3 h) was 105.2 meq/L. It also gave a DBIL (3 h) of 0.006 mg/dL, a GLC (3 h) of 165 mg/dL and an IP (3 h) of 8.7 mg/dL. The K (3 h) was 4.7 meq/L, the LDH (3 h) was 59.4 IU/L and the Na (3 h) was 141.4 meq/L. For the same compound, the PL (3 h) was 160.8 mg/dL, the RALB (3 h) was 2.7 g/dL and the TBIL (3 h) was 0.062 mg/dL. It also gave a TC (3 h) of 90.6 mg/dL, a TG (3 h) of 56.2 mg/dL and a TP (3 h) of 5.7 g/dL. It also gave a gamma-GTP (3 h) of 1.4 IU/L, a TERMINAL_BW (6 h) of 207.3 g and an APTT (6 h) of 16.9 s. It also gave a Bas (6 h) of 0%, an Eos (6 h) of 1% and a Fbg (6 h) of 337 mg/dL. For the same compound, the Hb (6 h) was 14.3 g/dL, the Ht (6 h) was 43.5% and the Lym (6 h) was 69.8%. It also gave an MCH (6 h) of 20.9 pg, an MCHC (6 h) of 32.9% and an MCV (6 h) of 63.5 fL. The Mono (6 h) was 2.2%, the Neu (6 h) was 27% and the PT (6 h) was 14.1 s. The Plat (6 h) was 124.3 x10_4/uL, the RBC (6 h) was 685.4 x10_4/ul and the Ret (6 h) was 7.5%. It also gave a WBC (6 h) of 81.3 x10_2/uL, a KIDNEY_L (6 h) of 1 g and a KIDNEY_R (6 h) of 1 g. It also gave a KIDNEY_TOTAL (6 h) of 1.9 g, an LIVER (6 h) of 9 g and an A/G (6 h) of 1. For the same compound, the ALP (6 h) was 1195.2 IU/L, the ALT (6 h) was 35.2 IU/L and the AST (6 h) was 72.4 IU/L. For the same compound, the BUN (6 h) was 11.4 mg/dL, the CRE (6 h) was 0.2 mg/dL and the Ca (6 h) was 10.9 mg/dL. For the same compound, the Cl (6 h) was 106.8 meq/L, the DBIL (6 h) was 0.01 mg/dL and the GLC (6 h) was 167.6 mg/dL. The IP (6 h) was 9.1 mg/dL, the K (6 h) was 5 meq/L and the LDH (6 h) was 62.6 IU/L. For the same compound, the Na (6 h) was 142.4 meq/L, the PL (6 h) was 149.4 mg/dL and the RALB (6 h) was 2.8 g/dL. For the same compound, the TBIL (6 h) was 0.06 mg/dL, the TC (6 h) was 81.2 mg/dL and the TG (6 h) was 54 mg/dL. It also gave a TP (6 h) of 5.6 g/dL, a gamma-GTP (6 h) of 1 IU/L and a TERMINAL_BW (9 h) of 208.4 g. It also gave an APTT (9 h) of 18 s, a Bas (9 h) of 0% and an Eos (9 h) of 1%. It also gave a Fbg (9 h) of 310.4 mg/dL, a Hb (9 h) of 14.1 g/dL and a Ht (9 h) of 42.6%. For the same compound, the Lym (9 h) was 70.2%, the MCH (9 h) was 20.9 pg and the MCHC (9 h) was 33.1%. For the same compound, the MCV (9 h) was 63 fL, the Mono (9 h) was 2% and the Neu (9 h) was 26%. It also gave a PT (9 h) of 13.9 s, a Plat (9 h) of 116.9 x10_4/uL and an RBC (9 h) of 677 x10_4/ul. It also gave a Ret (9 h) of 7.4%, a WBC (9 h) of 88.1 x10_2/uL and a KIDNEY_L (9 h) of 1 g. For the same compound, the KIDNEY_R (9 h) was 1 g, the KIDNEY_TOTAL (9 h) was 2 g and the LIVER (9 h) was 8.5 g. For the same compound, the A/G (9 h) was 0.9, the ALP (9 h) was 1205.8 IU/L and the ALT (9 h) was 37 IU/L. It also gave an AST (9 h) of 72 IU/L, a BUN (9 h) of 11.4 mg/dL and a CRE (9 h) of 0.2 mg/dL. It also gave a Ca (9 h) of 10.8 mg/dL, a Cl (9 h) of 105.8 meq/L and a DBIL (9 h) of 0.008 mg/dL. The GLC (9 h) was 161.8 mg/dL, the IP (9 h) was 10.6 mg/dL and the K (9 h) was 4.6 meq/L. It also gave an LDH (9 h) of 48.2 IU/L, a Na (9 h) of 142.6 meq/L and a PL (9 h) of 133.6 mg/dL. For the same compound, the RALB (9 h) was 2.7 g/dL, the TBIL (9 h) was 0.056 mg/dL and the TC (9 h) was 74.2 mg/dL. For the same compound, the TG (9 h) was 37.4 mg/dL, the TP (9 h) was 5.6 g/dL and the gamma-GTP (9 h) was 1.2 IU/L. For the same compound, the TERMINAL_BW (24 h) was 227.4 g, the APTT (24 h) was 16.3 s and the Bas (24 h) was 0%. It also gave an Eos (24 h) of 1%, a Fbg (24 h) of 314.2 mg/dL and a Hb (24 h) of 14.1 g/dL. The Ht (24 h) was 42%, the Lym (24 h) was 79.8% and the MCH (24 h) was 22 pg. It also gave an MCHC (24 h) of 33.5%, an MCV (24 h) of 65.5 fL and a Mono (24 h) of 2.4%. The Neu (24 h) was 16.6%, the PT (24 h) was 13.9 s and the Plat (24 h) was 130 x10_4/uL. For the same compound, the RBC (24 h) was 642 x10_4/ul, the Ret (24 h) was 7.4% and the WBC (24 h) was 86.7 x10_2/uL. The KIDNEY_L (24 h) was 1 g, the KIDNEY_R (24 h) was 1 g and the KIDNEY_TOTAL (24 h) was 2 g. The LIVER (24 h) was 10.9 g, the A/G (24 h) was 0.9 and the ALP (24 h) was 1815 IU/L. The ALT (24 h) was 47 IU/L, the AST (24 h) was 67.4 IU/L and the BUN (24 h) was 16.2 mg/dL. For the same compound, the CRE (24 h) was 0.2 mg/dL, the Ca (24 h) was 11.3 mg/dL and the Cl (24 h) was 105.8 meq/L. For the same compound, the DBIL (24 h) was 0.01 mg/dL, the GLC (24 h) was 179.8 mg/dL and the IP (24 h) was 8.2 mg/dL. It also gave a K (24 h) of 4 meq/L, an LDH (24 h) of 60.6 IU/L and a Na (24 h) of 144.2 meq/L. For the same compound, the PL (24 h) was 155.4 mg/dL, the RALB (24 h) was 2.7 g/dL and the TBIL (24 h) was 0.04 mg/dL. For the same compound, the TC (24 h) was 81 mg/dL, the TG (24 h) was 92 mg/dL and the TP (24 h) was 5.5 g/dL. It also gave a gamma-GTP (24 h) of 1 IU/L.
